Laboratory results taken from patent US10793568B2, “Hormone receptor modulators for treating metabolic conditions and disorders” (ARDELYX, INC., priority 2016, dated 2020).

Assays:
[1] = biological target: ligand binding domain of human FXR (Homo sapiens (Human), UniProt Q96RI1); assay: FXR ligand binding assay (LanthaScreen TR-FRET, SRC2-2 peptide recruitment); conditions: for pEC50: -log EC50, concentration required to produce 50% activation; for Emax: extent of activation relative to GW4064, read-out: % Efficacy
ligand binding domain of human FXR, sequence (Q96RI1 262-486): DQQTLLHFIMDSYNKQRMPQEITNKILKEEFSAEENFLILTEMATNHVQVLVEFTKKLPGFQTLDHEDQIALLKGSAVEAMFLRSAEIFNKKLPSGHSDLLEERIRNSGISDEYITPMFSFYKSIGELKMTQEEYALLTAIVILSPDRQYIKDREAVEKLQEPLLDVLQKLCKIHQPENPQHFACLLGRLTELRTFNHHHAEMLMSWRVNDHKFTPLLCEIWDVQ

[2] = biological target: human Farnesoid X receptor ligand-binding domain/Gal4 DNA binding domain chimera (Homo sapiens (Human), UniProt Q96RI1); assay: Cell-based assay of FXR activation (FXR-UAS-bla HEK 293T beta-lactamase reporter); conditions: cellular FXR beta-lactamase reporter assay; for Emax: HEK-293T, extent of activation relative to GW4064, read-out: % Efficacy; for EC50: FXR-UAS-bla HEK 293T cells, 16 h, pEC50 = -log EC50
human Farnesoid X receptor ligand-binding domain/Gal4 DNA binding domain chimera, sequence (Q96RI1 262-486, change not shown): as the sequence (Q96RI1 262-486) above
human Farnesoid X receptor ligand-binding domain/Gal4 DNA binding domain chimera, sequence (P04386 1-147 partner): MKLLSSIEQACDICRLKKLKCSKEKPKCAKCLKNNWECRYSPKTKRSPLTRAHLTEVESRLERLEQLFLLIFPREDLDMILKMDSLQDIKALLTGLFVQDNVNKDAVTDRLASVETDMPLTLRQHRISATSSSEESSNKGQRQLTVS
Outline: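 HEK 293T cells stably expressing a Gal4-fused human FXR LBD and a UAS-driven beta-lactamase reporter were incubated with serially diluted compounds for 16 h at 37 °C in phenol red-free DMEM with 2% charcoal-stripped FBS. CCF4 FRET read-out: excitation 409 nm, emission 447 nm. pEC50 comes from a 3-parameter logistic fit, and efficacy is given as % of GW4064.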

| Structure (SMILES) | pEC50 [1] | Emax [1] [%] | Emax [2] [%] | EC50 [2] [nM] |
| --- | --- | --- | --- | --- |
| CCc1cc(C(=O)O)cc2sc(N3C(=O)[C@@H]4C[C@H]3C[C@H]4OCc3c(-c4c(Cl)cccc4Cl)noc3C3CC3)nc12 [Compound I-294, 2-[(1S,4R,5R)-5-{[5-cyclopropyl-3-(2,6-dichlorophenyl)-1,2-oxazol-4-yl]methoxy}-3-oxo-2-azabicyclo[2.2.1]heptan-2-yl]-4-ethyl-1,3-benzothiazole-6-carboxylic Acid] | 8.2 | 82 | 104 | 2.51 |
| O=C(O)c1cc(C2CC2)c2nc(N3C(=O)[C@@H]4C[C@H]3C[C@H]4OCc3c(-c4c(Cl)cccc4Cl)noc3C3CC3)sc2c1 [Compound I-295, 4-cyclopropyl-2-((1S,4R,5R)-5-((5-cyclopropyl-3-(2,6-dichlorophenyl)isoxazol-4-yl)methoxy)-3-oxo-2-azabicyclo[2.2.1]heptan-2-yl)benzo[d]thiazole-6-carboxylic acid] | 8.2 | 98 | 105 | 1 |
| O=C(O)c1cc(C2CCC2)c2nc(N3C(=O)[C@@H]4C[C@H]3C[C@H]4OCc3c(-c4c(Cl)cccc4Cl)noc3C3CC3)sc2c1 [Compound I-296, 4-cyclobutyl-2-((1S,4R,5R)-5-((5-cyclopropyl-3-(2,6-dichlorophenyl)isoxazol-4-yl)methoxy)-3-oxo-2-azabicyclo[2.2.1]heptan-2-yl)benzo[d]thiazole-6-carboxylic acid] | 7.6 | 90 | 109 | 10 |
| O=C(O)c1cc(OC2CC2)c2nc(N3C(=O)[C@@H]4C[C@H]3C[C@H]4OCc3c(-c4c(Cl)cccc4Cl)noc3C3CC3)sc2c1 [Compound I-297, 4-cyclopropoxy-2-((1S,4R,5R)-5-((5-cyclopropyl-3-(2,6-dichlorophenyl)isoxazol-4-yl)methoxy)-3-oxo-2-azabicyclo[2.2.1]heptan-2-yl)benzo[d]thiazole-6-carboxylic acid] | 9 | 77 | 110 | 0.316 |
| O=C(O)c1cc(C2CCOCC2)c2nc(N3C(=O)[C@@H]4C[C@H]3C[C@H]4OCc3c(-c4c(Cl)cccc4Cl)noc3C3CC3)sc2c1 [Compound I-298, 2-((1S,4R,5R)-5-((5-cyclopropyl-3-(2,6-dichlorophenyl)isoxazol-4-yl)methoxy)-3-oxo-2-azabicyclo[2.2.1]heptan-2-yl)-4-(tetrahydro-2H-pyran-4-yl)benzo[d]thiazole-6-carboxylic acid] | – | 133 | 112 | 7.94 |
| O=C(O)c1cc(C2CCOC2)c2nc(N3C(=O)[C@@H]4C[C@H]3C[C@H]4OCc3c(-c4c(Cl)cccc4Cl)noc3C3CC3)sc2c1 (stereo partly drawn) [Compound I-299, 2-((1S,4R,5R)-5-((5-cyclopropyl-3-(2,6-dichlorophenyl)isoxazol-4-yl)methoxy)-3-oxo-2-azabicyclo[2.2.1]heptan-2-yl)-4-(tetrahydrofuran-3-yl)benzo[d]thiazole-6-carboxylic acid] | 8 | 112 | 108 | 3.98 |
| O=C(O)c1cc(C2CC3(CCOCC3)C2)c2nc(N3C(=O)[C@@H]4C[C@H]3C[C@H]4OCc3c(-c4c(Cl)cccc4Cl)noc3C3CC3)sc2c1 [Compound I-300, 2-((1S,4R,5R)-5-((5-cyclopropyl-3-(2,6-dichlorophenyl)isoxazol-4-yl)methoxy)-3-oxo-2-azabicyclo[2.2.1]heptan-2-yl)-4-(7-oxaspiro[3.5]nonan-2-yl)benzo[d]thiazole-6-carboxylic acid] | 1 | 82 | 117 | 100 |
| O=C(O)c1cc(O[C@H]2CCOC2)c2nc(N3C(=O)[C@@H]4C[C@H]3C[C@H]4OCc3c(-c4c(Cl)cccc4Cl)noc3C3CC3)sc2c1 [Compound I-302, 2-((1S,4R,5R)-5-((5-cyclopropyl-3-(2,6-dichlorophenyl)isoxazol-4-yl)methoxy)-3-oxo-2-azabicyclo[2.2.1]heptan-2-yl)-4-(((S)-tetrahydrofuran-3-yl)oxy)benzo[d]thiazole-6-carboxylic acid] | 8.4 | 106 | 114 | 39.8 |
